According to ChEMBL document CHEMBL5532761, “Rosavin improves insulin resistance and alleviates hepatic and kidney damage via modulating the cGAS-STING pathway and autophagy signaling in HFD/STZ-induced T2DM animals” (2024):
The source made the active and inactive calls. No cut-off for these calls is given here.

What was measured:
[1] = tested on: Rattus norvegicus; experiment: Antidiabetic activity in high fat diet-STZ induced diabetic Wistar rat model assessed as insulin level in serum at 10 mg/kg, ip pretreated with high fat diet for 4 weeks followed by 8 hrs fasting after STZ administration and measured 4 weeks after compound treatment by ELISA (reference value: 16.53 +/- 1.14 microU/ml); type: functional
[2] = tested on: Rattus norvegicus; experiment: (§1) Antidiabetic activity in high fat diet-STZ induced diabetic Wistar rat model assessed as HOMA-IR level at 10 mg/kg, ip pretreated with high fat diet for 4 weeks followed by 8 hrs fasting after STZ administration and measured 4 weeks after compound treatment (reference value: 21.51 +/- 2.17); type: functional
[3] = tested on: Rattus norvegicus; experiment: as §1, with “HDL-cholesterol” for “HOMA-IR”, “0.688” for “21.51”, “0.288 mmol/L)” for “2.17)”; type: functional
[4] = tested on: Rattus norvegicus; experiment: as §1, with “triglyceride” for “HOMA-IR”, “20” for “10”, “17.05” for “21.51”, “0.803 mmol/L)” for “2.17)”; type: functional
[5] = tested on: Rattus norvegicus; experiment: as §1, with “HDL-cholesterol” for “HOMA-IR”, “20” for “10”, “0.688” for “21.51”, “0.288 mmol/L)” for “2.17)”; type: functional
[6] = tested on: Rattus norvegicus; experiment: as §1, with “blood urea nitrogen” for “HOMA-IR”, “20” for “10”, “466.4” for “21.51”, “51.16 mg%)” for “2.17)”; type: functional
[7] = tested on: Rattus norvegicus; experiment: as §1, with “cholesterol” for “HOMA-IR”, “30” for “10”, “10.39” for “21.51”, “1.3 mmol/L)” for “2.17)”; type: functional
[8] = tested on: Rattus norvegicus; experiment: as §1, with “blood urea nitrogen” for “HOMA-IR”, “30” for “10”, “466.4” for “21.51”, “51.16 mg%)” for “2.17)”; type: functional
[9] = tested on: Rattus norvegicus; experiment: (§2) Antidiabetic activity in high fat diet-STZ induced diabetic Wistar rat model assessed as mean area percentage of LC3B in liver at 10 mg/kg, ip pretreated with high fat diet for 4 weeks followed by 8 hrs fasting after STZ administration and measured after 4 weeks of compound treatment by immunohistochemistry based microscopic analysis (reference value: 0.742 +/- 0.143 %); type: functional
[10] = tested on: Rattus norvegicus; experiment: as §2, with “20” for “10”; type: functional
[11] = tested on: Rattus norvegicus; experiment: as §2, with “TNF alpha” for “LC3B”, “20” for “10”, “18.28” for “0.742”, “1.31” for “0.143”; type: functional
[12] = tested on: Rattus norvegicus; experiment: as §2, with “kidney” for “liver”, “2.47” for “0.742”, “0.356” for “0.143”; type: functional
[13] = tested on: Rattus norvegicus; experiment: as §2, with “TNFalpha” for “LC3B”, “kidney” for “liver”, “24” for “0.742”, “1.5” for “0.143”; type: functional
[14] = tested on: Rattus norvegicus; experiment: as §2, with “TNFalpha” for “LC3B”, “kidney” for “liver”, “20” for “10”, “24” for “0.742”, “1.5” for “0.143”; type: functional
[15] = tested on: Rattus norvegicus; experiment: (§3) Antidiabetic activity in ip dosed high fat diet-STZ induced diabetic Wistar rat model assessed as reduction of ZBP1 mRNA expression in liver pretreated with high fat diet for 4 weeks followed by 8 hrs fasting after STZ administration and measured 4 weeks after compound treatment by RT-qPCR analysis; type: functional, organism-based; settings: dose 10-30 mg/kg
[16] = tested on: Rattus norvegicus; experiment: Antidiabetic activity in ip dosed high fat diet-STZ induced diabetic Wistar rat model assessed as reduction of STING mRNA expression in liver pretreated with high fat diet for 4 weeks followed by 8 hrs fasting after STZ administration and measured 4 weeks after compound treatment by RT-qPCR analysis; type: functional, organism-based; settings: dose 10-30 mg/kg
[17] = tested on: Rattus norvegicus; experiment: as §3, with “in” for “in ip dosed”, “increase in AC074117.2 lncRNA” for “reduction of ZBP1 mRNA”, “kidney at 10 to 30 mg/kg, ip” for “liver”; type: functional, organism-based; settings: dose 10-30 mg/kg
[18] = tested on: Rattus norvegicus; experiment: (§4) Antidiabetic activity in high fat diet-STZ induced diabetic Wistar rat model assessed as intact hepatocytes by measuring reduction in persistent fatty changes at 20 mg/kg, ip pretreated with high fat diet for 4 weeks followed by 8 hrs fasting after STZ administration and measured 4 weeks after compound treatment by hematoxylin and eosin staining based microscopic analysis; type: functional, organism-based
[19] = tested on: Rattus norvegicus; experiment: (§5) Antidiabetic activity in high fat diet-STZ induced diabetic Wistar rat model assessed as appearance of apparent intact segments in kidney at 10 mg/kg, ip pretreated with high fat diet for 4 weeks followed by 8 hrs fasting after STZ administration and measured 4 weeks after compound treatment by hematoxylin and eosin staining based microscopic analysis; type: functional, organism-based
[20] = tested on: Rattus norvegicus; experiment: as §5, with “reduction in tubular dilation” for “appearance of apparent intact segments”, “30” for “10”; type: functional, organism-based
[21] = tested on: Rattus norvegicus; experiment: as §5, with “reduction” for “appearance of apparent intact segments”, “adipocyte diameter in adipose tissue” for “kidney”; type: functional, organism-based
[22] = tested on: Rattus norvegicus; experiment: as §5, with “protection against vacuolar changes throughout hepatic lobules” for “appearance of apparent intact segments in kidney”; type: functional, organism-based
[23] = tested on: Rattus norvegicus; experiment: as §4, with “hepatocytes” for “hepatocytes by measuring reduction in persistent fatty changes”, “30” for “20”; type: functional, organism-based
[24] = tested on: Rattus norvegicus; experiment: as §5, with “binucleated cells” for “appearance of apparent intact segments”, “liver” for “kidney”, “30” for “10”; type: functional, organism-based

`O[C@@H]1[C@@H](O)[C@H](OC/C=C/c2ccccc2)O[C@H](CO[C@@H]2OC[C@H](O)[C@H](O)[C@H]2O)[C@H]1O` gave an Activity [1] of 13.88 uU/ml, an Activity [2] of 7.81 and an Activity [3] of 0.916 mmol/L. It also gave an Activity [4] of 6.46 mmol/L, an Activity [5] of 1.06 mmol/L and an Activity [6] of 213.3 mg%. It also gave an Activity [7] of 3.15 mmol/L, an Activity [8] of 172.3 mg% and an Activity [9] of 2.22%. For the same compound, the Activity [10] was 2.35%, the Activity [11] was 8.75% and the Activity [12] was 8.6%. The Activity [13] was 16.98%, the Activity [14] was 13.17% and the Activity [15] was “Dose-Dependent Effect”. The Activity [16] was “Dose-Dependent Effect”, the Activity [17] was “Active” and the Activity [18] was “Active”. The Activity [19] was “inactive”, the Activity [20] was “Active” and the Activity [21] was “inactive”. The Activity [22] was “inactive”, the Activity [23] was “Active” and the Activity [24] was “Active”.
